Among the data in patent publication US20250281424A1 (New York Blood Center, Inc, priority 2020, published 2025) are IC50 and inhibition values, retold here.

In the experiment the target is T1, human PF4 (Homo sapiens, UniProt P02776).
T1 construct: PF4 is a 70 amino acid, lysine-rich 7.8 kDa platelet-specific protein; made in house; host or cells: Escherichia coli BL21DE3 pLysS (pT7-7) and/or Drosophila S2 cells
T1 sequence (P02776 32-101): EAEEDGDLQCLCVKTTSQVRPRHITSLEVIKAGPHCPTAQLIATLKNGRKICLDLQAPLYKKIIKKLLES
Briefly: Inhibition of PF4 tetramer formation (BS3 cross-linking, SDS-PAGE). The format is biochemical. The note with it: for IC50: read-out: IC50 of PF4 tetramer formation inhibition; for inhibition at 5 µM: 5 μM inhibitor; for inhibition at 5 µM / inhibition at 10 µM / inhibition at 1 µM / inhibition at 3 µM: read-out: % inhibition of PF4 tetramer formation at single concentration of inhibitor; for inhibition at 10 µM: 10 μM inhibitor (column A); for inhibition at 1 µM: 1 μM inhibitor; for inhibition at 3 µM: 3 μM inhibitor (column A). The procedure, abridged:
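Monomer, dimer, trimer and tetramer fractions were quantified by densitometry after reducing 12% SDS-PAGE of BS3-cross-linked (0.2 mM, 30 min, room temperature) PF4. Before cross-linking, 10 μg/ml E. coli-expressed human WT PF4 in PBS was exposed to compound for 15 min at 37° C or 60 min at room temperature; controls lacked compound.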

For the molecule `COCCCNC(=O)C1C(=O)c2ccc(S(=O)(=O)c3ccc4c(c3)C(=O)C(C(=O)NCCCOC)C4=O)cc2C1=O` (centres unmarked) [Example 90, N-(3-methoxypropyl)-5-({2-[(3-methoxypropyl)carbamoyl]-1,3-dioxo-2,3-dihydro-1H-inden-5-yl}sulfonyl)-1,3-dioxo-2,3-dihydro-1H-indene-2-carboxamide], the IC50 is 4.2 µM.

Consider `COc1ccc(NC(=O)C2C(=O)c3ccc(S(=O)(=O)c4ccc5c(c4)C(=O)C(C(=O)Nc4ccc(OC)cc4OC)C5=O)cc3C2=O)c(OC)c1` (centres unmarked) [Example 94, N-(2,4-dimethoxyphenyl)-5-({2-[(2,4-dimethoxyphenyl)carbamoyl]-1,3-dioxo-2,3-dihydro-1H-inden-5-yl}sulfonyl)-1,3-dioxo-2,3-dihydro-1H-indene-2-carboxamide], for which the inhibition at 5 µM was 33% and the inhibition at 10 µM came out at 62%.

Consider `O=C(c1ccc2c(c1)C(=O)C(C(=O)Cc1cccnc1)C2=O)c1ccc2c(c1)C(=O)C(C(=O)Cc1cccnc1)C2=O` (centres unmarked) [Example 238, 5-{1,3-dioxo-2-[2-(pyridin-3-yl)acetyl]-2,3-dihydro-1H-indene-5-carbonyl}-2-[2-(pyridin-3-yl)acetyl]-2,3-dihydro-1H-indene-1,3-dione], for which the inhibition at 1 µM was 7% and the inhibition at 3 µM came out at 100%.

`O=C(COc1ccccc1)C1C(=O)c2ccc(S(=O)(=O)c3ccc4c(c3)C(=O)C(C(=O)COc3ccccc3)C4=O)cc2C1=O` (centres unmarked) [Example 144, 5-{[1,3-dioxo-2-(2-phenoxyacetyl)-2,3-dihydro-1H-inden-5-yl]sulfonyl}-2-(2-phenoxyacetyl)-2,3-dihydro-1H-indene-1,3-dione]: the concentration for half-maximal inhibition (IC50) was found to be 4.7 µM.

As to `CC(C)(C)OC(=O)N1CSC[C@@H]1C(=O)C1C(=O)c2ccc(S(=O)(=O)c3ccc4c(c3)C(=O)C(C(=O)[C@H]3CSCN3C(=O)OC(C)(C)C)C4=O)cc2C1=O` (stereo partly drawn) [Example 221, tert-butyl (4S)-4-[5-({2-[(4S)-3-[(tert-butoxy)carbonyl]-1,3-thiazolidine-4-carbonyl]-1,3-dioxo-2,3-dihydro-1H-inden-5-yl}sulfonyl)-1,3-dioxo-2,3-dihydro-1H-indene-2-carbonyl]-1,3-thiazolidine-3-carboxylate], the inhibition at 5 µM stood at 92%, the inhibition at 10 µM was 97% and the IC50 came out at 2.3 µM.

Regarding `O=C(NCCc1ccc(F)cc1)C1C(=O)c2ccc(S(=O)(=O)c3ccc4c(c3)C(=O)C(C(=O)NCCc3ccc(F)cc3)C4=O)cc2C1=O` (centres unmarked) [Example 83, N-[2-(4-fluorophenyl)ethyl]-5-[(2-{[2-(4-fluorophenyl)ethyl]carbamoyl}-1,3-dioxo-2,3-dihydro-1H-inden-5-yl)sulfonyl]-1,3-dioxo-2,3-dihydro-1H-indene-2-carboxamide], the IC50 turned out to be 2.3 µM.

`CCCC(=O)C1C(=O)c2ccc(Oc3ccc4c(c3)C(=O)C(C(=O)CCC)C4=O)cc2C1=O` (centres unmarked) [Example 321, 2-butanoyl-5-[(2-butanoyl-1,3-dioxo-2,3-dihydro-1H-inden-5-yl)oxy]-2,3-dihydro-1H-indene-1,3-dione]: the inhibition at 1 µM worked out at 17% and the inhibition at 3 µM was determined as 23%.

Regarding `CSCC(=O)C1C(=O)c2ccc(S(=O)(=O)c3ccc4c(c3)C(=O)C(C(=O)CSC)C4=O)cc2C1=O` (centres unmarked) [Example 282, 2-[2-(methylsulfanyl)acetyl]-5-({2-[2-(methylsulfanyl)acetyl]-1,3-dioxo-2,3-dihydro-1H-inden-5-yl}sulfonyl)-2,3-dihydro-1H-indene-1,3-dione], the inhibition at 1 µM amounted to 29%, the inhibition at 3 µM is 45% and the IC50 is 3 µM.

As for `COCCOCCN(CC(=O)C1C(=O)c2ccc(C(=O)c3ccc4c(c3)C(=O)C(C(=O)CN(CCOCCOC)C(=O)OC(C)(C)C)C4=O)cc2C1=O)C(=O)OC(C)(C)C` (centres unmarked) [Example 391, tert-butyl N-[2-(5-{2-[2-(11,11-dimethyl-9-oxo-2,5,10-trioxa-8-azadodecan-8-yl)acetyl]-1,3-dioxo-2,3-dihydro-1H-indene-5-carbonyl}-1,3-dioxo-2,3-dihydro-1H-inden-2-yl)-2-oxoethyl]-N-[2-(2-methoxyethoxy)ethyl]carbamate], the inhibition at 1 µM came out at 1% and the inhibition at 3 µM worked out at 6%.

In the case of `O=C(c1ccc2c(c1)C(=O)C(C(=O)NCC1CC1)C2=O)c1ccc2c(c1)C(=O)C(C(=O)NCC1CC1)C2=O` (centres unmarked) [Example 76, N-(cyclopropylmethyl)-5-{2-[(cyclopropylmethyl)carbamoyl]-1,3-dioxo-2,3-dihydro-1H-indene-5-carbonyl}-1,3-dioxo-2,3-dihydro-1H-indene-2-carboxamide], the IC50 turned out to be 2.1 µM.

In the case of `CC(C)(C)OC(=O)N1CC[C@H]1C(=O)C1C(=O)c2ccc(C(=O)c3ccc4c(c3)C(=O)C(C(=O)[C@@H]3CCN3C(=O)OC(C)(C)C)C4=O)cc2C1=O` (stereo partly drawn) [Example 115, tert-butyl (2S)-2-(5-{2-[(2S)-1-[(tert-butoxy)carbonyl]azetidine-2-carbonyl]-1,3-dioxo-2,3-dihydro-1H-indene-5-carbonyl}-1,3-dioxo-2,3-dihydro-1H-indene-2-carbonyl)azetidine-1-carboxylate], the IC50 worked out at 3.3 µM.

Regarding `COC(=O)N1CCC[C@H]1C(=O)C1C(=O)c2ccc(-c3ccc4c(c3)C(=O)C(C(=O)[C@@H]3CCCN3C(=O)OC)C4=O)cc2C1=O` (stereo partly drawn) [Example 213, methyl (2S)-2-{2′-[(2S)-1-(methoxycarbonyl)pyrrolidine-2-carbonyl]-1,1′,3,3′-tetraoxo-1H,1′H,2H,2′H,3H,3′H-[5,5′-biindene]-2-carbonyl}pyrrolidine-1-carboxylate], the inhibition at 5 µM came to 87%, the inhibition at 10 µM came out at 89% and the half-inhibitory concentration (IC50) is 4.8 µM.

Take `CC(=O)NCCCC(=O)C1C(=O)c2ccc(C(=O)c3ccc4c(c3)C(=O)C(C(=O)CCCNC(C)=O)C4=O)cc2C1=O` (centres unmarked) [Example 269, N-(4-{5-[2-(4-acetamidobutanoyl)-1,3-dioxo-2,3-dihydro-1H-indene-5-carbonyl]-1,3-dioxo-2,3-dihydro-1H-inden-2-yl}-4-oxobutyl)acetamide]: the inhibition at 1 µM is 14% and the inhibition at 3 µM came out at 50%.

As to `O=C(NC1CC1)C1C(=O)c2ccc(-c3ccc4c(c3)C(=O)C(C(=O)NC3CC3)C4=O)cc2C1=O` (centres unmarked) [Example 110, (2Z,2′Z)-2,2′-bis[(cyclopropylamino)(hydroxyl)methylidene]-1H,1′H,2H,2′H,3H,3′H-[5,5′-biindene]-1,1′,3,3′-tetrone], the inhibition at 5 µM is 84%, the inhibition at 10 µM worked out at 87% and the half-maximal inhibitory concentration (IC50) was around 4 µM.

As to `O=C(c1ccc2c(c1)C(=O)C(C(=S)NC1CC1)C2=O)c1ccc2c(c1)C(=O)C(C(=S)NC1CC1)C2=O` (centres unmarked) [Example 328, N-cyclopropyl-5-[2-(cyclopropylcarbamothioyl)-1,3-dioxo-2,3-dihydro-1H-indene-5-carbonyl]-1,3-dioxo-2,3-dihydro-1H-indene-2-carbothioamide], the inhibition at 1 µM stood at 16% and the inhibition at 3 µM came to 26%.

For `O=C(c1ccc2c(c1)C(=O)C(C(=O)CC1CCCC1=O)C2=O)c1ccc2c(c1)C(=O)C(C(=O)CC1CCCC1=O)C2=O` (centres unmarked) [Example 261, 5-{1,3-dioxo-2-[2-(2-oxocyclopentyl)acetyl]-2,3-dihydro-1H-indene-5-carbonyl}-2-[2-(2-oxocyclopentyl)acetyl]-2,3-dihydro-1H-indene-1,3-dione], the inhibition at 1 µM came out at 67%, the inhibition at 3 µM came out at 77% and the IC50 was determined as 1.32 µM.

Consider `O=C(NC1CC1)C1C(=O)c2ccc(C(c3ccc4c(c3)C(=O)C(C(=O)NC3CC3)C4=O)(C(F)(F)F)C(F)(F)F)cc2C1=O` (centres unmarked) [Example 108, N-cyclopropyl-5-{2-[2-(cyclopropylcarbamoyl)-1,3-dioxo-2,3-dihydro-1H-inden-5-yl]-1,1,1,3,3,3-hexafluoropropan-2-yl}-1,3-dioxo-2,3-dihydro-1H-indene-2-carboxamide], for which the half-inhibitory concentration (IC50) came out at 5.4 µM.

For the molecule `CSCCCC(=O)C1C(=O)c2ccc(S(=O)(=O)c3ccc4c(c3)C(=O)C(C(=O)CCCSC)C4=O)cc2C1=O` (centres unmarked) [Example 285, 2-[4-(methylsulfanyl)butanoyl]-5-({2-[4-(methylsulfanyl)butanoyl]-1,3-dioxo-2,3-dihydro-1H-inden-5-yl}sulfonyl)-2,3-dihydro-1H-indene-1,3-dione], the inhibition at 1 µM came to 33%, the inhibition at 3 µM came to 49% and the 50% inhibitory concentration (IC50) came out at 3 µM.

In the case of `O=C(c1ccc2c(c1)C(=O)C(C(=O)C1CCOC1)C2=O)c1ccc2c(c1)C(=O)C(C(=O)C1CCOC1)C2=O` (centres unmarked) [Example 146, 5-[1,3-dioxo-2-(oxolane-3-carbonyl)-2,3-dihydro-1H-indene-5-carbonyl]-2-(oxolane-3-carbonyl)-2,3-dihydro-1H-indene-1,3-dione], the inhibition at 5 µM is 44% and the inhibition at 10 µM amounted to 40%.

For `O=C1c2ccc(S(=O)(=O)c3ccc4c(c3)C(=O)C(C(=O)[C@@H]3C[C@H]3C(=O)O)C4=O)cc2C(=O)C1C(=O)[C@@H]1C[C@H]1C(=O)O` (stereo in doubt) [Example 223, (1R,2R)-2-[5-({2-[(1R,2R)-2-carboxycyclopropanecarbonyl]-1,3-dioxo-2,3-dihydro-1H-inden-5-yl}sulfonyl)-1,3-dioxo-2,3-dihydro-1H-indene-2-carbonyl]cyclopropane-1-carboxylic acid], the inhibition at 5 µM was found to be 97%, the inhibition at 10 µM was determined as 100% and the half-maximal inhibitory concentration (IC50) came to 1.4 µM.

By IC50 is commonly meant the concentration that inhibits the measured activity by half.
